Kd data for 2 substances are collected here from PMC7698151, “Evidence for Pentapeptide-Dependent and Independent CheB Methylesterases” (International Journal of Molecular Sciences, 2020).

Where “and” joins values, the source holds several entries; their conditions need not be identical. Equal entries are not always repeated. Where no end group is shown, it is not given here.

The target of assay [1] is T1, CheB2 D55E mutant protein (Pseudomonas aeruginosa, UniProt Q9I6V9, D55E).
T1 construct: His-tag (pET28b) (N); made in house; host or cells: E. coli BL21 (DE3)
T1 sequence (Q9I6V9 1-349 D55E): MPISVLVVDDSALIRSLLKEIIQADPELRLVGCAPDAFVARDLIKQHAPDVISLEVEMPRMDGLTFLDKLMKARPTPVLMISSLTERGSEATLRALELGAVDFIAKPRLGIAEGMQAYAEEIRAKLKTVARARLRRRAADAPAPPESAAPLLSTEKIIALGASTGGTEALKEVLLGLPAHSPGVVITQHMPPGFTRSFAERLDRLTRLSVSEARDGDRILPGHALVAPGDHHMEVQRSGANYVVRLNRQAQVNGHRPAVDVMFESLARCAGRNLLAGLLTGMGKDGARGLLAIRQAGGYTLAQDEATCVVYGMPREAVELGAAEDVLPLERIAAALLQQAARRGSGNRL
Briefly: Microcalorimetric titration (ITC) of the CheB2 D55E mutant with the GWEEF peptide. The format is binding, Pseudomonas aeruginosa PAO1.
Method: All experiments were conducted on a VP microcalorimeter (Microcal, Amherst, MA, USA) at 25 °C. For the analysis of the CheB homologs of P. aeruginosa, 15–40 μM of proteins (dialyzed into 5-mM Tris/HCl, 5-mM Pipes, and 5-mM Mes, pH 7.0) were placed into the sample cell and titrated with 1–7-mM solution of the GWEEF peptide (synthesized by Biomedal S.L., Seville, Spain). […] All ligand solutions were prepared in dialysis buffer immediately before use. The mean enthalpies measured from the injection of the peptide into the buffer were subtracted from the raw titration data prior to data analysis with the “one binding site model” of the MicroCal version of ORIGIN.

In the next assay the target is T2, CheB2 (Pseudomonas aeruginosa, UniProt Q9I6V9).
T2 construct: His-tag (pET28b) (N); made in house; host or cells: E. coli BL21 (DE3)
T2 sequence (Q9I6V9 whole entry): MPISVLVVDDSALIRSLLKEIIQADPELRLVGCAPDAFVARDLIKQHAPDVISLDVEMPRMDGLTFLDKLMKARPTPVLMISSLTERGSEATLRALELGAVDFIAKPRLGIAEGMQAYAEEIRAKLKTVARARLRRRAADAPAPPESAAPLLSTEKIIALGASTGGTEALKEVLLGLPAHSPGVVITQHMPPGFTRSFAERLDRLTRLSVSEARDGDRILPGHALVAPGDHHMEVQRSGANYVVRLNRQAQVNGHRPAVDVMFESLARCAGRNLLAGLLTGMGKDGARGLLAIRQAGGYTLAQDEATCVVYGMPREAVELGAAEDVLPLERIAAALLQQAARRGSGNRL
Briefly: Microcalorimetric titration (ITC) of CheB2 with the McpB pentapeptide. The conditions noted are these: 25 °C, 15-40 μM protein in 5-mM Tris/HCl, 5-mM Pipes, 5-mM Mes, pH 7.0, titrated with 1-7 mM peptide, one binding site model, read-out: dissociation constant (KD). Set-up: species or system Pseudomonas aeruginosa PAO1.

Another assay has as its system CheR from E. coli. The conditions noted are these: cited from earlier work. From the text: This pentapeptide, NWETF, represents an additional binding site for CheR and CheB [8, 9]. […] St ...

For the substance GWEEF [GWEEF], the Kd – broadly, the constant that tells how readily two partners part at equilibrium – in assay [1] was found to be 56 ± 14 µM; at CheB2 it was 0.093 mM. Turning to “NWETF [C-terminal pentapeptide of E. coli Tar/Tsr and of eight P. atrosepticum SCRI1043 chemoreceptors]”, the Kd in the assay with CheR from E. coli was 2 µM and ~2 µM.
